Test results taken from paper PMC6542369 (Bioorganic & medicinal chemistry letters, 2017).

Columns and labels:
[1] = biological target: T1, hM4 (Homo sapiens, UniProt P08173); format: cell-based; conditions: for loss of potency (fold): hM4 potency relative to 10a; for hM4 activity: replacement of the fluorine with other halogens
T1 sequence (P08173 1-479): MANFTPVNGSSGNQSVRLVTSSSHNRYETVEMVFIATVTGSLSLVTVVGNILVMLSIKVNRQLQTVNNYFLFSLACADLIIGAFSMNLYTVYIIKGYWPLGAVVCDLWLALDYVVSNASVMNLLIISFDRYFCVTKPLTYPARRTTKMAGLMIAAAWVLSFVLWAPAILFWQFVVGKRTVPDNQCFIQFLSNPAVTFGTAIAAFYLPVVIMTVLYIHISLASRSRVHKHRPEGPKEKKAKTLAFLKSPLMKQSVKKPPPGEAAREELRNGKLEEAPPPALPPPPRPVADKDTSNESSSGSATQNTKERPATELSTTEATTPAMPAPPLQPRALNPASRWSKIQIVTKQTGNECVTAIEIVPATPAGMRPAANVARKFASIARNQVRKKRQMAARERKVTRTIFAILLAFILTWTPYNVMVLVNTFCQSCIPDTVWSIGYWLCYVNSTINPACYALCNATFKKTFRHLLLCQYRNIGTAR

[2] = biological target: T2, hM2 (Homo sapiens, UniProt P08172); assay: mAChR subtype selectivity / counter screen, hM2; format: cell-based
T2 sequence (P08172 1-466): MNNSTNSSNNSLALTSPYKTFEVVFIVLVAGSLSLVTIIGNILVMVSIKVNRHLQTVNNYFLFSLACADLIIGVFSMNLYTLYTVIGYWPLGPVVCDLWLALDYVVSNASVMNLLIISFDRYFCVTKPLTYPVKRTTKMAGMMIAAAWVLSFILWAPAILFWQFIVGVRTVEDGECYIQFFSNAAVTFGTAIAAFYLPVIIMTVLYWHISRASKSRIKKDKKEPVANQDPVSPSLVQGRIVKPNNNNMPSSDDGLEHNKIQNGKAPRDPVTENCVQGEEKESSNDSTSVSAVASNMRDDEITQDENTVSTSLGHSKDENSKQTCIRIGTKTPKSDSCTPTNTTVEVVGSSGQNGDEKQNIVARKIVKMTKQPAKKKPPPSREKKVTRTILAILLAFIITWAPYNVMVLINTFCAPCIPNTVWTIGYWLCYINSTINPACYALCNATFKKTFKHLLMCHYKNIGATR

Row | Structure (SMILES) | loss of potency (fold) [1] | other results
1 | Cc1nnc2sc(C(=O)N3CC(O)(c4ccccc4)C3)c(N)c2c1C [Compound 11a] | ~ 10 fold | –
2 | COC1(c2cccc(F)c2)CN(C(=O)c2sc3nnc(C)c(C)c3c2N)C1 [Compound 11b] | ~ 6 fold | –
3 | COc1cccc(C2CN(C(=O)c3sc4nnc(C)c(C)c4c3N)C2)c1 [Compound 10h] | > 100 fold | –
4 | COc1ccc(C2CN(C(=O)c3sc4nnc(C)c(C)c4c3N)C2)cc1 [Compound 10i] | ~ 3.5 fold | –
5 | Cc1nnc2sc(C(=O)N3CC(c4ccc(Br)cc4)C3)c(N)c2c1C [Compound 10n] | – | hM4 activity [1]: complete loss of hM4 activity
6 | Cc1nnc2sc(C(=O)N3CC(c4ccc(Cl)cc4)C3)c(N)c2c1C [Compound 10m] | – | hM4 activity [1]: complete loss of hM4 activity
7 | Cc1nnc2sc(C(=O)N3CC(c4ccc(F)cc4)C3)c(N)c2c1C [Compound 10l] | – | activity at hM2 [2]: inactive
